Biological target: T1, mouse TMEM16F (Mus musculus, UniProt Q6P9J9)
T1 construct: expressed in transfected cells; host or cells: HEK293T
T1 sequence (Q6P9J9 1-911): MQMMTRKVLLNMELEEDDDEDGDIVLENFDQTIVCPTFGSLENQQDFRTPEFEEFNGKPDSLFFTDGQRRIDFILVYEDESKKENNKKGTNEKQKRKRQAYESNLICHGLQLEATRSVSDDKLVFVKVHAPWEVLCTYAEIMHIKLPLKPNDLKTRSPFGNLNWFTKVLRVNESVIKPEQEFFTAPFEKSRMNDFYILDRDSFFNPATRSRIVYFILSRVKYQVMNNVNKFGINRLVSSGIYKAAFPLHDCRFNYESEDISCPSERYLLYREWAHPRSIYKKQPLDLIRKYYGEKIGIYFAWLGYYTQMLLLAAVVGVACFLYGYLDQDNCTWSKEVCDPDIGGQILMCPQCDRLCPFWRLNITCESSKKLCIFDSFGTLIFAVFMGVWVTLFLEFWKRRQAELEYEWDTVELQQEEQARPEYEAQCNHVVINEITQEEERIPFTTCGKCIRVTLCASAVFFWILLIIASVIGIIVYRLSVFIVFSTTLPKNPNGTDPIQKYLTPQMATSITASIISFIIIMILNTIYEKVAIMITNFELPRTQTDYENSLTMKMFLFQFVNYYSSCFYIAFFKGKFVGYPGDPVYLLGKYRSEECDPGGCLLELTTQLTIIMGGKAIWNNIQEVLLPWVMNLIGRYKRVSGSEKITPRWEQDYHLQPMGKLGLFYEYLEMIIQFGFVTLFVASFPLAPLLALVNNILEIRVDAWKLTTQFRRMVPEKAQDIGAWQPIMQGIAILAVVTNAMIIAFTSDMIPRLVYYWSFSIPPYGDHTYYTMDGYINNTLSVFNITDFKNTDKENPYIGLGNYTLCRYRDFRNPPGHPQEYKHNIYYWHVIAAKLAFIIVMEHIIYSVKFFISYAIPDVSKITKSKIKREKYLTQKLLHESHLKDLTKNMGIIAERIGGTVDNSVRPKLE
Assay: Inside-out patch recording of 1PBC block, TMEM16F
Format: cell-based
Conditions: 300 µM Ca2+
Description: HEK293T cells (ATCC CRL-1573) were maintained in Dulbecco’s modified Eagle’s medium (DMEM; Sigma-Aldrich) supplemented with 10 U ml^−1 penicillin, 0.1 mg ml^−1 streptomycin (Sigma-Aldrich), 2 mM L-glutamine (Sigma-Aldrich), and 10% FBS (Sigma-Aldrich) in a humidified atmosphere containing 5% CO2 at 37 °C. HEK293S GnTI^− cells (ATCC CRL-3022) were maintained in HyClone HyCell TransFx-H medium (GE Healthcare) supplemented with 10 U ml^−1 penicillin, 0.1 mg ml^−1 streptomycin, 4 mM L-glutamine, 0.15% poloxamer 188 (Sigma-Aldrich), and 1% FBS in an atmosphere containing 5% CO2 at 185 rpm at 37 °C. The ac splice variant of mouse TMEM16A (UniProt ID: Q8BHY3), mouse TMEM16B (UniProt ID: Q8CFW1), or mouse TMEM16F (UniProt ID: Q6P9J9) bearing a 3C cleavage site, a Venus YFP, a Myc tag, and a Streptavidin-binding peptide (SBP) downstream of the open reading frame in a modified pcDNA3.1 vector (Invitrogen) were used as described previously[21],[31]. Mutations were introduced using a modified QuikChange method[58] and were verified by sequencing.
HEK293T cells were transfected with 3–4 μg DNA per 6 cm Petri dish using the calcium phosphate co-precipitation method and were used within 24–96 h after transfection. Recordings were performed on inside-out patches excised from HEK293T cells expressing the construct of interest. Patch pipettes were pulled from borosilicate glass capillaries (O.D. 1.5 mm, I.D. 0.86 mm, Sutter Instrument) and were fire-polished with a microforge (Narishige) before use. Pipette resistance was typically 3–8 MΩ when filled with the recording solutions detailed below. Seal resistance was typically 4 GΩ or higher. Voltage-clamp recordings were made using Axopatch 200B, Digidata 1550, and Clampex 10.7 (Molecular Devices). Analog signals were filtered with the in-built 4-pole Bessel filter at 10 kHz and were digitized at 20 kHz. Solution exchange was achieved using a gravity-fed system through a theta glass pipette mounted on an ultra-fast piezo-driven stepper (Siskiyou). […] All recordings were performed at 20 °C.
A symmetrical ionic condition was used throughout. Stock solution with Ca^2+-EGTA contained 150 mM NaCl, 5.99 mM Ca(OH)2, 5 mM EGTA, and 10 mM HEPES at pH 7.40. Stock solution with EGTA contained 150 mM NaCl, 5 mM EGTA, and 10 mM HEPES at pH 7.40. Free Ca^2+ concentrations were adjusted by mixing the stock solutions at the required ratios calculated using the WEBMAXC program (http://web.stanford.edu/~cpatton/webmaxcS.htm). Patch pipettes were filled with the stock solution with Ca^2+-EGTA, which has a free Ca^2+ concentration of 1 mM. 1PBC (ChemBridge) stock was reconstituted in anhydrous DMSO (Sigma-Aldrich) at 100 mM and stored at −20 °C. Working solutions with 1PBC were prepared by serial dilution. Unless otherwise stated, experiments were performed at a saturating Ca^2+ concentration as shown in Supplementary Table 1 and the primary data were corrected for current rundown as described previously[21],[25].
Concentration-response relations, obtained from the ratio of the I-V plots before and after the application of the blocker, were fitted to the Hill equation,1 I/Imax=1/1+IC50/[blocker]^h where I/Imax is the normalized current responses, IC50 defines the concentration at which inhibition is at its half-maximum, and h is the Hill coefficient.

remaining activity at 3 µM (3 µM 1PBC, +80 mV, read-out: I/Imax): 100%
remaining activity at 10 µM (10 µM 1PBC, +80 mV, read-out: I/Imax): 98.7%
remaining activity at 30 µM (30 µM 1PBC, +80 mV, read-out: I/Imax): 101%
remaining activity at 100 µM (100 µM 1PBC, +80 mV, read-out: I/Imax): 100%
Inhibition of the current mediated by the scramblase TMEM16F (within the same concentration range): ineffective
Compound: N#Cc1c(C(F)(F)F)cc(O)n2c1nc1ccccc12 [1PBC]

Reference: article PMC9120017, “Inhibition mechanism of the chloride channel TMEM16A by the pore blocker 1PBC” (Nature Communications, 2022)
